Assay results taken from paper PMC11541488, “Targeting the Plasmodium falciparum IspE Enzyme” (ACS Omega, 2024).
Like-named read-outs stand apart in the source and are kept apart here.

Tests used:
[1] = target: T1, PfIspE (Plasmodium falciparum, UniProt Q8I470); experiment: Biochemical IspE assay (PK/LDH-coupled, NADH oxidation at 340 nm)
Description: (§1) Here, we initiated a high-throughput screening (HTS) campaign on the PfIspE protein (Section S1 in the Supporting Information). The HTS was based on a proprietary library of 100 000 compounds from the BASF company and used the inhibitory potency of the compound against the IspE protein as the readout. The IC50 from the IspE assay was also a key parameter for our chemical optimization study. Therefore, it is important to note that the activity of the target enzyme in the IspE assay is coupled to the oxidation of NADH (which is followed spectrophotometrically at 340 nm) via a cascade of the auxiliary enzymes pyruvate kinase and lactate dehydrogenase (PK/LDH, Section S2 in the Supporting Information). Accordingly, to confirm that the effects observed in the IspE assay are due to inhibition of the target enzyme rather than the auxiliary enzymes, it is crucial to maintain a difference between the PK/LDH and IspE enzymatic activities. Furthermore, as we have previously reported, the biological testing of this chemical class requires careful handling such as storage of the compounds at −20 °C.[19] Based on what has been reported in the literature, a risk-mitigation strategy involves adding a substituent to the C-5 position of the thiazole ring,[20] which we have adhered to in this SAR exploration. […]
(§2) kBar. The lysate was then centrifuged at 15000 rpm for 80 minutes at 4 °C to remove cell debris, and the supernatant was collected.
(§3) 1.2. Protein Purification
(§4) The supernatant containing the target protein was applied to a Ni-chelating Sepharose column (1 cm x 20 cm) that had been equilibrated with the lysis buffer containing 15 mM imidazole. The column was washed with the same buffer supplemented with 15 mM imidazole until the OD280 reached the baseline. The bound proteins were then eluted from the column using a gradient of imidazole ranging from 15 mM to 600 mM, collected in a volume of 100 mL.
(§5) If further purification was required, size exclusion chromatography was performed using a Superdex200 (GE, 2 cm x 60 cm) column. The column was equilibrated with the lysis buffer without imidazole. The eluted IspE fractions from the previous chromatography step were directly applied to the top of the Superdex200 column.
(§6) The purity and integrity of the purified PfIspE protein were assessed using SDS-PAGE.
(§7) The molecular weight of the protein was estimated by comparison with standard protein markers. The concentration of the purified protein was determined using a NanoDrop.
(§8) The purified PfIspE protein was aliquoted and stored at - 80 °C until further use.
(§9) (Note: All procedures were performed at 4 °C unless otherwise specified ).
(§10) 2.0 Biochemical IspE assay
(§11) Escherichia coli IspE[1] and Plasmodium falciparum IspE[2] for IspE assays was expressed, isolated and purified as previously described. All other enzymes and chemicals used in the assays were purchased from Sigma-Aldrich (Taufkirchen, […]
For testing of compounds in the IspE assay, CDP-ME (0.2 mM) in 100 mM Tris-HCl, pH 7.6, 0.02% NaN3 (30 µL) was added to a well of the 384-well microplate, preloaded either with DMSO or with test compound dissolved in DMSO (3 µL). The reaction was started by addition of 100 mM Tris-HCl, pH 7.6, 10 mM MgCl2, 60 mM KCl, 10 mM dithiothreitol, 0.02% NaN3, 1 mM NADH, 2 mM phosphoenolpyruvate, 2 mM ATP, […]
pyruvate kinase (1 U mL–1), lactate dehydrogenase (1 U mL–1) and E. coli IspE (0.05 U mL–1) (27 µL per microplate well).
IC50 values were measured at CDP-ME concentration 100 µM. […]
(§12) For both kinds of assays the OD values in the microplate wells were monitored photometrically at 340 nm (room temperature) for 30 to 90 min in a plate reader (SpectraMax5, […], USA). Initial rate values were evaluated with a nonlinear regression method using the program Dynafit.[3]
Figure S1 : IC50 curve of compound 19.
(1 picture or pasted object on this page, not shown here)

[2] = target: PK-LDH (pyruvate kinase/lactate dehydrogenase); experiment: Pyruvate kinase assay (auxiliary enzymes PK/LDH); format: biochemical; details: determined for PfIspE IC50 < 100 μM
Description: as §1, with “°C.[19]” for “°C.[19] Based on what has been reported in the literature, a risk-mitigation strategy involves adding a substituent to the C-5 position of the thiazole ring,[20] which we have adhered to in this SAR exploration.”
as §12, with “Dynafit.[3] […]” for “Dynafit.[3]”

[3] = test system: PfNF54; experiment: [3H]-hypoxanthine incorporation assay, asexual blood stage parasites; format: cell-based; details: Plasmodium falciparum
Description: However, direct comparison of the two assays is extremely difficult. Consequently, it is essential to note that the existence of additional target proteins within P. falciparum at this stage is neither confirmed nor ruled out. […]
the compound activity against P. falciparum NF54 asynchronous parasites, the [3H]- hypoxanthine incorporation assay was used as described.[4] Compounds dissolved in DMSO (10 mg/mL) are diluted in hypoxanthine - free culture media and was titrated in duplicates over a 64-fold range in 96 well plates. Parasite culture diluted to 0.3% parasitemia with 1.25% final haematocrit with hypoxantine-free medium was added at 100 µL to each well. Following a 48 h incubation, […] [3H]-hypoxanthine was added per well. Plates are incubated for another 24 h. Radioactivity was then measured using MicroBeta2 liquid scintillation counter (Perkin Elmer, Waltham, US) following parasite harvesting onto Microbeta FilterMate cell harvester (Perkin, Elmer, Waltham, US). The fifty percent inhibitory concentration (IC50) was then calculated by linear interpolation as described.[5]
For the background lysate, HEK293 cells (passage 27) were grown to 90% confluency in Dulbecco´s Modified Eagle´s Medium (DMEM high glucose, Sigma) supplemented with 2 mM L-glutamine and 10% (v/v) heat-inactivated fetal calf serum (FCS) in T-175 cell culture flasks. Lysis was performed using HEPES buffer (pH 7.5 , Roth) containing 1% Nonidet P 40 alternative (NP-40), 0.4% sodium dodecyl sulfate (SDS, Roth) and 1% sodium deoxycholate (Roth). The lysate was gently sonicated three times for 10 s on a Bandelin Sonoplus HD2070 at 10% amplitude. The lysate was cleared by centrifugation at 16.000 x g for 10 min. The protein content of the supernatant was determined using a BCA assay (ROTIQuant, Roth) according to the suppliers specifications and adjusted to 5 µg/µL to yield the stock solutions used in the […]
7.2 Reaction with probe 23
The protein samples were prepared to result in 50 µg lysate protein per lane and/or 10 µg of the respective recombinant protein (see section 1 of this SI). […]

[4] = target: T2, EcIspE (Escherichia coli, UniProt P62615); experiment: Analytical SDS-PAGE, photoprobe labelling and competition of probe 23 with compound 19; format: binding; details: for Probe binding to IspE (SDS-PAGE): probe 10 µM, native protein
T2 construct: made in house

[5] = target: T1, PfIspE; experiment: as above; format: binding; details: for Probe binding to IspE (SDS-PAGE): probe 10 µM, native protein
[6] = test system: Ec IspE; details: cited from earlier work
[7] = target: T2, EcIspE; experiment: Biochemical IspE assay (PK/LDH-coupled); details: Table S1; read-out: Inhibitory potency on EcIspE
Description: as §2, §3, §4, §5, §6, §7, §8, §9, §10, §11
as §12, with “Dynafit.[3] […]” for “Dynafit.[3]”

[8] = CDP-ME concentration 100 µM, read-out: IC50 PfIspE
[9] = parasite growth, 72 h total incubation, read-out: IC50 PfNF54
[10] = competitor 19 in 15 times excess
[11] = compound 19 in 15 times excess to probe 23 (10 µM)

T2 sequence (P62615 whole entry): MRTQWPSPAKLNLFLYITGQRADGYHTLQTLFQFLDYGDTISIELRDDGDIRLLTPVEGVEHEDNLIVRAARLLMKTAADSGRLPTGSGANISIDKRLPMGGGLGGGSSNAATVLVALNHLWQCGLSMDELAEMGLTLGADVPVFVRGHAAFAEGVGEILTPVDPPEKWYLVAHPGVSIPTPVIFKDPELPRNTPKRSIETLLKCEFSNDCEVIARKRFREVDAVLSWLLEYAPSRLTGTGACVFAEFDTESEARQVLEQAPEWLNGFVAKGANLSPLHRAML
T1 sequence (Q8I470 entry or part of it): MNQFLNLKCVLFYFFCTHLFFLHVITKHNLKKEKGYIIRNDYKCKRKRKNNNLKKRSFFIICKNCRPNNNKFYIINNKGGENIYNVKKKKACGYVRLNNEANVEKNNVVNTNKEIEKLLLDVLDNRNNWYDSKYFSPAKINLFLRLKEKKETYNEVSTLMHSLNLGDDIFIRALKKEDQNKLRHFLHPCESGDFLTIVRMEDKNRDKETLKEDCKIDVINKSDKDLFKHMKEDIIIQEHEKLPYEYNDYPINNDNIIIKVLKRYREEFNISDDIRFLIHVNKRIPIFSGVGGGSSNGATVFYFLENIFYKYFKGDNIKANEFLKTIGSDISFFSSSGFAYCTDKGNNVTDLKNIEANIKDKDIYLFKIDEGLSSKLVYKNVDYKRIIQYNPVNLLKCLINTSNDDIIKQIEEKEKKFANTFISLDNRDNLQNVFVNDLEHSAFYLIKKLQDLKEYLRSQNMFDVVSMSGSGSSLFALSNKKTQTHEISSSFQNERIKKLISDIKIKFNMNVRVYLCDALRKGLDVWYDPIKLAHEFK

Compound: CCn1c(C)cc(-c2csc(Nc3ccc4[nH]ncc4c3)n2)c1C [Compound 20]
- IC50 [1, 8]: 121 ± 17 µM

Compound: CCn1c(C)cc(-c2csc(Nc3ccc4[nH]cnc4c3)n2)c1C [Compound 19]
- Boost in IspE inhibitory potency compared to initial hit 9 [1]: 8 fold
- IC50 [1, 8]: 53 ± 19 µM
- IC50 [2]: > 500 µM
- IC50 ([3]; corresponding to 0.82 μg/mL, read-out: IC50 PfNF54 converted to molar): ~2.4 µM
- IC50 [3, 9]: 0.82 ± 0.01 µg/mL
- Reduction in fluorescence of probe 23 label [4, 10]: 63%
- Relative fluorescence of probe 23 label remaining [4, 11]: about 37%
- Reduction in fluorescence of probe 23 label [5, 10]: 48%
- Relative fluorescence of probe 23 label remaining [5, 11]: ~52%

Compound: CCn1c(C)cc(-c2csc(Nc3ccc(N(C)C)cc3)n2)c1C [Compound 13]
- IC50 [1, 8]: > 500 µM

Compound: Nc1nc(=O)n(C2CCCS2)cc1C#CCNS(=O)(=O)C1CC1 (stereo not shown) [Compound 1]
- IC50 [6]: 8 ± 0.1 µM

Compound: CCn1c(C)cc(-c2csc(Nc3ccc(Cl)cc3)n2)c1C [Compound 15]
- IC50 [1, 8]: 111 ± 34 µM

Compound: CCn1c(C)cc(-c2csc(Nc3ccc(OC)cc3)n2)c1C [Compound 14]
- IC50 [1, 8]: > 500 µM

Compound: CCn1c(C)cc(-c2csc(Nc3ccc(Cl)nc3)n2)c1C [Compound 16]
- IC50 [1, 8]: 216 ± 53 µM

Compound: CCn1c(C)cc(-c2csc(Nc3ccccc3C(F)(F)F)n2)c1C [Compound 10]
- IC50 [1, 8]: > 500 µM

Compound: NCCC(=O)Nc1ccc(I)cc1Oc1cc(Cl)cc(Cl)c1 [Compound 2]
- IC50 [6]: 63 ± 15 µM

Compound: C1=C(c2c[nH]c3ncccc23)CCNC1 [Compound 8]
- IC50 [6]: 1500 ± 300 µM

Compound: CCOC(=O)CC1(n2cc(C#CCNS(=O)(=O)C3CC3)c(N)nc2=O)COC1 [Compound 1a]
- IC50 [6]: 590 ± 10 µM

Compound: C#CCn1c(C)cc(-c2csc(Nc3ccc(CC(F)(F)F)cc3)n2)c1C [Compound 22]
- IC50 [1, 8]: 192 ± 21 µM
- IC50 [7]: 31 ± 13 µM

Compound: CCn1c(C)cc(-c2csc(Nc3cccc(C(F)(F)F)c3)n2)c1C [Compound 9]
- IC50 [1, 8]: 405 ± 114 µM

Compound: C#CCn1c(C)cc(-c2csc(Nc3ccc(C4(C(F)(F)F)N=N4)cc3)n2)c1C [Compound 23]
- IC50 [1, 8]: 145 ± 42 µM
- IC50 [3, 9]: 9.8 ± 2.9 µg/mL
- IC50 [7]: 77 ± 16 µM
- Probe binding to IspE (SDS-PAGE) [4]: high affinity
- Probe binding to IspE (SDS-PAGE) [5]: high affinity

Compound: CCn1c(C)cc(-c2csc(Nc3ccccc3)n2)c1C [Compound 12]
- IC50 [1, 8]: > 500 µM

Compound: C#CCn1c(C)cc(-c2csc(Nc3cccc(CC(F)(F)F)c3)n2)c1C [Compound 21]
- IC50 [1, 8]: 286 ± 55 µM
- IC50 [7]: > 500 µM

Compound: Oc1csc(Nc2nccs2)n1 [Compound 7]
- IC50 [6]: 160 ± 0.9 µM

Compound: C#CCCC1(CC(=O)Nc2ccccc2)N=N1 [Compound 24, reference compound]
- Probe binding to IspE (SDS-PAGE) [4]: does not show the same binding profile
- Probe binding to IspE (SDS-PAGE) [5]: does not show the same binding profile

Compound: CCn1c(C)cc(-c2csc(Nc3cc(Cl)cc(Cl)c3)n2)c1C [Compound 17]
- IC50 [1, 8]: 143 ± 24 µM

Compound: CCn1c(C)cc(-c2csc(Nc3ccc(C(F)(F)F)cc3)n2)c1C [Compound 11]
- IC50 [1, 8]: 128 ± 23 µM

Compound: CCn1c(C)cc(-c2csc(Nc3ccc(CN)cc3)n2)c1C [Compound 18]
- IC50 [1]: 86 ± 44 µM
- IC50 [2]: > 500 µM
